In the experiment the target is tau (Homo sapiens, UniProt P10636). In words: MCE Phenols Library screening, tau biosensor cell seeding assay (AvZ). The format is cell-based. Conditions: for Z repl 1 / Z Repl 2: Z score; for Z repl 1 / raw data 1: replicate 1; for Z Repl 2 / raw data 2: replicate 2; for AvZ (average z score of seeding, SDs from the mean level of seeding): 10 μM phenol in cell cultures, AD brain homogenate preincubated 16 hours, two biological replicates, positive = catalyzes seeding, negative = inhibits.

Where [1] appears, read: average Z score of the two replicates, tau biosensor seeding, MCE Phenols Library screen.
Setting [2] is: average Z score of the two replicates, MCE Phenols Library screen.
[3] abbreviates: average puncta of the two replicates.
Where [4] appears, read: average Z score of two replicates, Phenols Library screen.
[5] abbreviates: average Z score of the two replicates, tau seeding.

Molecules are shown by their SMILES.

Chain of tau (P10636 623-695 limits assumed): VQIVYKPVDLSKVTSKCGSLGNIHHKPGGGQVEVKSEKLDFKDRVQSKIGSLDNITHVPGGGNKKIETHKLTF

As for `CC(C)=CCc1cc2c(=O)cc(-c3ccc(O)cc3)oc2cc1O` [Licoflavone A], the “Z repl 1” value was found to be 1.035 and the “Z Repl 2” value is listed as 0.525. In addition, the “av Z” value under setting [1] worked out at 0.78. Besides, the av puncta (average of raw data 1 and 2) came to 28570.9. In addition, under “puncta”, the “raw data 1” value amounted to 38768.9 and the “raw data 2” value was found to be 18372.9.
Regarding `COc1cc2c(cc1OC)[C@@H](Cc1ccc(O)c(Oc3cc4c(cc3OC)CCN(C)[C@@H]4Cc3ccc(O)cc3)c1)N(C)CC2` [Liensinine], the “Z repl 1” value is reported as -0.418 and the “Z Repl 2” value was -0.081. In addition, the “av Z” value under setting [2] was -0.249. This compound yielded an av puncta under setting [3] of 16619. Further, for the setting “raw puncta”, the “raw data 1” value is on record as 21336.6 and the “raw data 2” value was 11901.3.
Consider `O=C1C[C@@H](c2ccc(O[C@@H]3O[C@H](CO)[C@@H](O)[C@H](O)[C@H]3O)cc2)Oc2cc(O)ccc21` [Liquiritin], for which the “Z repl 1” value is listed as 0.131 and the “Z Repl 2” value was -0.067. The “av Z” value under setting [4] was determined as 0.032. This compound also registered an av puncta (average of raw data 1 and 2) of 19987.6. In addition, under “puncta”, the “raw data 1” value is given as 27927.2 and the “raw data 2” value is given as 12048.
`O=C(/C=C/c1ccc(O)c2c1[C@H](C(=O)O)[C@@H](c1ccc(O)c(O)c1)O2)O[C@H](Cc1ccc(O)c(O)c1)C(=O)O` [Lithospermic acid]: the “Z repl 1” value is listed as -1.337 and the “Z Repl 2” value is -0.834. Also, the “av Z” value under setting [2] is -1.085. Also, the av puncta (average of raw data 1 and 2) is 7079.11. Moreover, where the note is “puncta”, the “raw data 1” value stood at 10304.3 and the “raw data 2” value came out at 3853.96.
`COc1ccc(CCC(=O)c2ccc(O)cc2)c(OC)c1` [Loureirin A]: the “Z repl 1” value is listed as -0.527 and the “Z Repl 2” value worked out at 0.435. Under setting [4], the “av Z” value was -0.046. In addition, the av puncta (average of raw data 1 and 2) is reported as 18718.9. Also, where the note is “puncta”, the “raw data 1” value was 20023.7 and the “raw data 2” value is 17414.1.
Consider `COc1cc(OC)c(CCC(=O)c2ccc(O)cc2)c(OC)c1` [Loureirin B], for which the “Z repl 1” value is reported as 1.015 and the “Z Repl 2” value is listed as 0.248. Besides, under setting [5], the “av Z” value worked out at 0.631. The same compound yielded an av puncta (average of raw data 1 and 2) of 26974.5. In addition, under “puncta”, the “raw data 1” value turned out to be 38536.8 and the “raw data 2” value turned out to be 15412.2.
Consider `O=C1c2ccccc2C(=O)c2c1cc(O)c(CO)c2O` [Lucidin], for which the “Z repl 1” value is 0.331 and the “Z Repl 2” value was -0.667. The “av Z” value under setting [4] is -0.168. Besides, the av puncta (average of raw data 1 and 2) is 17984.5. Besides, for the setting “puncta”, the “raw data 1” value is 30325.1 and the “raw data 2” value came out at 5643.99.
Regarding `O=C(O)[C@H]1O[C@@H](Oc2cc(O)c3c(=O)cc(-c4ccc(O)c(O)c4)oc3c2)[C@H](O)[C@@H](O)[C@@H]1O` [Luteolin 7-O-glucuronide], the “Z repl 1” value is given as -0.6 and the “Z Repl 2” value is -0.013. Further, the “av Z” value under setting [2] is given as -0.307. Under setting [3], this compound showed an av puncta of 15884.9. Besides, where the note is “raw puncta”, the “raw data 1” value was 19142 and the “raw data 2” value was determined as 12627.8.
`Oc1cc(O)c2ccc(-c3ccc(O)c(O)c3)[o+]c2c1.[Cl-]` [Luteolinidin (chloride)]: the “Z repl 1” value is reported as -0.952 and the “Z Repl 2” value is -1.154. For the same compound, the “av Z” value under setting [2] was -1.053. This compound also came in with an av puncta (average of raw data 1 and 2) of 7678.85. Where the note is “puncta”, the “raw data 1” value is given as 14921.6 and the “raw data 2” value was found to be 436.094.
On to `C=CCc1ccc(O)c(-c2cc(CC=C)ccc2O)c1` [Magnolol], for which the “Z repl 1” value stood at 0.295 and the “Z Repl 2” value turned out to be 1.074. The “av Z” value under setting [5] worked out at 0.685. Besides, the av puncta (average of raw data 1 and 2) came to 27065.9. Also, for the setting “puncta”, the “raw data 1” value was determined as 29891.7 and the “raw data 2” value was 24240.1.
On to `O=C(CCCCCCCCc1ccc(O)c(O)c1)c1c(O)cccc1O` [Malabaricone C], for which the “Z repl 1” value is -0.224 and the “Z Repl 2” value stood at 0.189. Under setting [4], the “av Z” value is reported as -0.018. Under “average of raw data 1 and 2”, this compound registered an av puncta of 19220. Under “puncta”, the “raw data 1” value is 23659 and the “raw data 2” value came to 14781.1.
`COc1ccc(-c2oc3c(CCC(C)(C)O)c(O[C@@H]4O[C@H](CO)[C@@H](O)[C@H](O)[C@H]4O)cc(O)c3c(=O)c2O)cc1` [Maohuoside A]: the “Z repl 1” value was -0.381 and the “Z Repl 2” value is recorded as -0.64. The “av Z” value under setting [2] is recorded as -0.51. For the same compound, under setting [3], the av puncta was 13854.4. Also, for the setting “puncta”, the “raw data 1” value came to 21773.2 and the “raw data 2” value is given as 5935.58.
As for `C[C@@H]1O[C@@H](OC[C@H]2O[C@@H](Oc3c(-c4ccc(O)cc4)oc4cc(O)cc(O)c4c3=O)[C@H](O[C@@H]3O[C@@H](C)[C@H](O)[C@@H](O)[C@H]3O)[C@@H](O)[C@H]2O)[C@H](O)[C@H](O)[C@H]1O` [Mauritianin], the “Z repl 1” value is recorded as 0.781 and the “Z Repl 2” value came to 1.032. For the same compound, the “av Z” value under setting [1] was determined as 0.906. For the same compound, the av puncta (average of raw data 1 and 2) is listed as 29752.2. Besides, under “puncta”, the “raw data 1” value is 35719.4 and the “raw data 2” value is on record as 23785.
For `O=c1cc(-c2ccc(O)cc2)oc2cc(O)c([C@@H]3O[C@H](CO)[C@@H](O)[C@H](O)[C@H]3O[C@@H]3O[C@H](CO)[C@@H](O)[C@H](O)[C@H]3O)c(O)c12` [Meloside A], the “Z repl 1” value is given as -1.304 and the “Z Repl 2” value is on record as -0.878. Besides, under setting [2], the “av Z” value is on record as -1.091. Under “average of raw data 1 and 2”, this compound registered an av puncta of 7038.23. Moreover, for the setting “puncta”, the “raw data 1” value was 10691.8 and the “raw data 2” value was 3384.65.
In the case of `COc1ccc(O)cc1` [Mequinol], the “AvZ (average z score of seeding, SDs from the mean level of seeding)” value (“AvZ” for short) was determined as 0.258; the “Z repl 1” value came out at 0.5; the “Z Repl 2” value is reported as 0.017. The compound also returned an av puncta (average of raw data 1 and 2) of 22646.3. For the same compound, under “puncta”, the “raw data 1” value was found to be 32350 and the “raw data 2” value amounted to 12942.5.
As for `COC(=O)Cc1ccc(O)cc1` [Methyl 4-hydroxyphenylacetate], the “AvZ” value is given as -0.61; the “Z repl 1” value is recorded as -0.457; the “Z Repl 2” value is on record as -0.762. In addition, under setting [3], the av puncta is listed as 12741.3. In addition, where the note is “puncta”, the “raw data 1” value was 20857.9 and the “raw data 2” value is 4624.75.
For the compound `COC(=O)c1ccccc1O` [Methyl Salicylate], the “AvZ” value is -0.502; the “Z repl 1” value is given as -0.127; the “Z Repl 2” value is -0.877. For the same compound, the av puncta under setting [3] worked out at 14109.8. Where the note is “puncta”, the “raw data 1” value worked out at 24825.4 and the “raw data 2” value turned out to be 3394.27.
As to `COC(=O)/C=C/c1ccc(O)c(O)c1` [Methyl caffeate], the “AvZ” value is on record as -0.349; the “Z repl 1” value is given as -0.415; the “Z Repl 2” value is reported as -0.284. Under setting [3], the av puncta was 15550.1. Moreover, under “raw puncta”, the “raw data 1” value worked out at 21362.3 and the “raw data 2” value is given as 9737.92.
For `COC(=O)c1cc(O)c(O)c(O)c1` [Methyl gallate], the “AvZ” value was -1.311; the “Z repl 1” value is recorded as -1.727; the “Z Repl 2” value is reported as -0.895. This compound registered an av puncta (average of raw data 1 and 2) of 4412. In addition, where the note is “puncta”, the “raw data 1” value is 5612.12 and the “raw data 2” value is given as 3211.88.
As for `COC(=O)[C@@H](Cc1ccc(O)c(O)c1)OC(=O)/C=C/c1ccc(O)c(O)c1` [Methyl rosmarinate], the “Z repl 1” value was -0.241 and the “Z Repl 2” value is given as -0.521. Moreover, the “av Z” value under setting [2] was -0.381. The same compound registered an av puncta under setting [3] of 15329.6. Further, where the note is “raw puncta”, the “raw data 1” value came out at 23459.6 and the “raw data 2” value was found to be 7199.56.
Take `COc1ccc2c(c1OC)O[C@H]1c3ccc(O)cc3OC[C@@H]21` [Methylnissolin]: the “Z repl 1” value is reported as -0.257 and the “Z Repl 2” value is on record as -1.004. Besides, under setting [2], the “av Z” value is given as -0.63. Besides, under setting [3], the av puncta worked out at 12658.4. Also, where the note is “puncta”, the “raw data 1” value came out at 23269.5 and the “raw data 2” value amounted to 2047.37.
For `O=C(O)[C@H]1O[C@@H](Oc2c(-c3ccc(O)c(O)c3)oc3cc(O)cc(O)c3c2=O)[C@H](O)[C@@H](O)[C@@H]1O` [Miquelianin], the “Z repl 1” value is reported as 1.087 and the “Z Repl 2” value is recorded as 0.729. For the same compound, the “av Z” value under setting [1] came to 0.908. Besides, the av puncta (average of raw data 1 and 2) is 29978.8. In addition, under “puncta”, the “raw data 1” value was determined as 39402.1 and the “raw data 2” value came out at 20555.6.
Regarding `COC(=O)c1c2c(c3ccccc3c1O)OC(C)(C)C=C2` [Mollugin], the “Z repl 1” value is given as 0.972 and the “Z Repl 2” value stood at 0.582. Besides, the “av Z” value under setting [1] came to 0.777. This compound also showed an av puncta (average of raw data 1 and 2) of 28499.6. Under “puncta”, the “raw data 1” value worked out at 38015.5 and the “raw data 2” value is 18983.8.
As to `Oc1cc(O)cc(-c2cc3ccc(O)cc3o2)c1` [Moracin M], the “Z repl 1” value is 0.06 and the “Z Repl 2” value is reported as -0.745. Besides, the “av Z” value under setting [2] is recorded as -0.343. Under setting [3], this compound registered an av puncta of 15938.9. For the same compound, under “raw puncta”, the “raw data 1” value is listed as 27063.9 and the “raw data 2” value is recorded as 4813.92.
For the compound `CC(C)=CCc1c2c(c(O)c3c1O[C@]14C(=C[C@@H]5C[C@H]1C(C)(C)O[C@@]4(C/C=C(/C)C(=O)O)C5=O)C3=O)C=CC(C)(C)O2` [Morellic acid], the “Z repl 1” value is on record as -0.656 and the “Z Repl 2” value is listed as -0.586. Besides, under setting [2], the “av Z” value is -0.621. The compound also came in with an av puncta under setting [3] of 12492.8. Moreover, under “puncta”, the “raw data 1” value is 18474.5 and the “raw data 2” value amounted to 6511.03.
Regarding `O=c1c(O)c(-c2ccc(O)cc2O)oc2cc(O)cc(O)c12` [Morin], the “Z repl 1” value is reported as -1.702 and the “Z Repl 2” value is -1.085. Further, the “av Z” value under setting [2] was -1.394. Besides, under “average of raw data 1 and 2”, the av puncta came to 3543.97. In addition, where the note is “puncta”, the “raw data 1” value is reported as 5911.71 and the “raw data 2” value is 1176.23.

Source of the values: paper PMC11784839, “Monoaminergic neurotransmitters are bimodal effectors of tau aggregation” (Science Advances, 2025).
